Laboratory results as given in US20170368082A1, “FORMULATIONS OF BRINCIDOFOVIR” (priority 2016, published 2017).
Like-named read-outs stand apart in the source and are kept apart here.

Assay: Phase 2 toxicokinetics of brincidofovir and cidofovir in plasma
Type: in vivo, Sprague-Dawley CD rats
Details: plasma; for AUC(0-t) / Cmax / Tmax / concentration at 1 h / concentration at 2 h / concentration at 8 h / concentration at 24 h / concentration at 0 h: Sprague-Dawley CD, rat; for AUC(0-t) / Cmax / Tmax: iv, brincidofovir in plasma; for Tmax: read-out: Tmax; for concentration at 1 h / concentration at 2 h / concentration at 8 h / concentration at 24 h / concentration at 0 h: intravenous
Protocol: Plasma samples (108) were collected 2 hours following the initiation of dosing on Day 1 and Day 7 (Group 1), or at 1, 2, 8, and 24 hours following the initiation of dosing on Day 1, and prior to administration and at 2, 8, and 24 hours following the initiation of dosing on Day 7 (Groups 2 and 3), and analyzed to determine the concentrations of brincidofovir and the metabolite, cidofovir), by LC/MS/MS.
Approximately 0.4 mL of whole blood was obtained via the tail vein from each animal at each time point. Animals were not fasted prior to blood collection. Blood was collected into tubes containing K2EDTA anticoagulant and placed on wet ice in an upright position, per facility SOP prior to processing. Plasma was separated by centrifugation (10 minutes at approximately 2000 g, at approximately 2-8° C.). Approximately 0.10 mL of plasma was transferred into a single cryotube appropriately labeled with study number, animal number, time point, date of sampling and sample type. Remaining plasma was transferred into a second cryotube and retained as a backup sample. Plasma frozen at approximately −80±10° C. within approximately 2 hours after collection of each blood sample until analysis. Animals were euthanized (CO2 inhalation) after the final blood collection.
In general, TK parameters were estimated using mean plasma concentrations of brincidofovir and cidofovir derived from the composite blood sampling design using Phoenix WinNonLin (V 6.3).
A composite blood sampling design was used such that each rat was sampled twice per sampling day. Blood was collected via tail vein from unanesthetized animals into tubes containing anticoagulant and placed on wet ice in an upright position. Animals were not fasted prior to blood collection. Plasma was separated by centrifugation (for 10 minutes at approximately 2000 g, at approximately 2-8° C.), and transferred into individually labeled cryotubes. All cryotubes containing the collected plasma samples were appropriately labeled as to study number, animal number, time point, date of sampling and sample type. All plasma samples were obtained and frozen at approximately −80° C. (±10° C.) within approximately 2 hours after collection of each blood sample until analysis.
Rat plasma bioanalysis was conducted by Pyxant Laboratories. Plasma samples were analyzed for concentrations of brincidofovir and cidofovir using a method based upon protein precipitation extraction followed by LC-MS/MS analysis; calibration ranges for brincidofovir and cidofovir were 1.00-1500 ng/mL and 5.00-750 ng/mL, respectively, (Pyxant study number 3025) for a 50 μL aliquot of rat plasma. Sample analysis for ISR was not performed as part of this non-GLP study.
For the generation of Mean Profiles, all sample concentrations that were below the limit of quantitation (BLQ) were set to 0.
All pharmacokinetic parameter estimates were completed using a Non-Compartmental Model (Model 200-202 for IV infusion administration). The AUClast and AUCinf were calculated using the linear up log down trapezoidal rule.

[1] = female, 15 mg/kg, 15 mg/kg 2-hour IV infusion, Female rats, Day 1
[2] = female, 15 mg/kg, 15 mg/kg 2-hour IV infusion, Female rats, Day 7
[3] = male, 1 mg/kg, brincidofovir 1 mg/kg 2-h IV infusion, male rats, Day 1, BLQ imputed as zero, read-out: Imputed Concentration, Mean
[4] = male, 1 mg/kg, brincidofovir 1 mg/kg 2-h IV infusion, male rats, Day 1, BLQ imputed as zero, read-out: Imputed Concentration, individual animals
[5] = male, 1 mg/kg, 1 mg/kg 2-hour IV infusion, Male rats, Day 1
[6] = male, 1 mg/kg, 1 mg/kg 2-hour IV infusion, Male rats, Day 7
[7] = male, 15 mg/kg, 15 mg/kg 2-hour IV infusion, Male rats, Day 1
[8] = male, 15 mg/kg, 15 mg/kg 2-hour IV infusion, Male rats, Day 7

## CCCCCCCCCCCCCCCCOCCCOP(=O)(O)CO[C@H](CO)Cn1ccc(N)nc1=O [Brincidofovir]
[1]
  AUC(0-t): 7360 ng·h/mL
  Cmax: 3470 ng/mL
  Tmax: 1 h
[2]
  AUC(0-t): 3420 ng·h/mL
  Cmax: 1660 ng/mL
  Tmax: 2 h
[3]
  concentration at 1 h: 227 ng/mL
  concentration at 2 h: 235 ng/mL
[4]
  concentration at 1 h: 156 ng/mL
  concentration at 2 h: 220 ng/mL
male, 1 mg/kg, brincidofovir 1 mg/kg 2-h IV infusion, male rats, Day 1, 8 h, BLQ imputed as zero, read-out: Imputed Concentration, Mean
  concentration at 8 h: 0 ng/mL
male, 1 mg/kg, brincidofovir 1 mg/kg 2-h IV infusion, male rats, Day 1, 8 h, BLQ imputed as zero, read-out: Imputed Concentration, individual animals
  concentration at 8 h: 0 ng/mL
male, 1 mg/kg, brincidofovir 1 mg/kg 2-h IV infusion, male rats, Day 1, 24 h, BLQ imputed as zero, read-out: Imputed Concentration, Mean
  concentration at 24 h: 0 ng/mL
male, 1 mg/kg, brincidofovir 1 mg/kg 2-h IV infusion, male rats, Day 1, 24 h, BLQ imputed as zero, read-out: Imputed Concentration, individual animals
  concentration at 24 h: 0 ng/mL
male, 1 mg/kg, brincidofovir 1 mg/kg 2-h IV infusion, male rats, Day 7, 0 h, BLQ imputed as zero, read-out: Imputed Concentration, Mean
  concentration at 0 h: 0 ng/mL
male, 1 mg/kg, brincidofovir 1 mg/kg 2-h IV infusion, male rats, Day 7, 0 h, BLQ imputed as zero, read-out: Imputed Concentration, individual animals
  concentration at 0 h: 0 ng/mL
male, 15 mg/kg, brincidofovir 15 mg/kg, Male, Day 1, 24 h, read-out: brincidofovir Imputed Mean Concentration (IMC)
  concentration at 24 h: 1.22 ng/mL
male, 15 mg/kg, brincidofovir 15 mg/kg, Male, Day 1, 24 h, read-out: brincidofovir Mean Concentration (MC)
  concentration at 24 h: 1.22 ng/mL
male, 15 mg/kg, brincidofovir 15 mg/kg, Male, Day 7, 8 h, read-out: brincidofovir Imputed Mean Concentration (IMC)
  concentration at 8 h: 8.72 ng/mL
male, 15 mg/kg, brincidofovir 15 mg/kg, Male, Day 7, 24 h, read-out: brincidofovir Imputed Mean Concentration (IMC)
  concentration at 24 h: 1.45 ng/mL
male, 15 mg/kg, brincidofovir 15 mg/kg, Male, Day 7, 24 h, read-out: brincidofovir Mean Concentration (MC)
  concentration at 24 h: 1.45 ng/mL
male, 15 mg/kg, 15 mg/kg, male rats, Day 1, 8 h, read-out: C (Concentration), individual animals
  concentration at 8 h: 10.7 ng/mL
male, 15 mg/kg, 15 mg/kg, male rats, Day 1, 8 h, read-out: IC (Imputed Concentration), individual animals
  concentration at 8 h: 10.7 ng/mL
male, 15 mg/kg, 15 mg/kg, male rats, Day 1, 24 h, read-out: C (Concentration), individual animals
  concentration at 24 h: 1.2 ng/mL
male, 15 mg/kg, 15 mg/kg, male rats, Day 1, 24 h, read-out: IC (Imputed Concentration), individual animals
  concentration at 24 h: 1.2 ng/mL
male, 15 mg/kg, 15 mg/kg, male rats, Day 7, 8 h, read-out: C (Concentration), individual animals
  concentration at 8 h: 9.82 ng/mL
male, 15 mg/kg, 15 mg/kg, male rats, Day 7, 8 h, read-out: IC (Imputed Concentration), individual animals
  concentration at 8 h: 9.82 ng/mL
male, 15 mg/kg, 15 mg/kg, male rats, Day 7, 24 h, read-out: C (Concentration), individual animals
  concentration at 24 h: 1.85 ng/mL
male, 15 mg/kg, 15 mg/kg, male rats, Day 7, 24 h, read-out: IC (Imputed Concentration), individual animals
  concentration at 24 h: 1.85 ng/mL
[5]
  Cmax: 235 ng/mL
  Tmax: 2 h
[6]
  Cmax: 208 ng/mL
  Tmax: 2 h
[7]
  AUC(0-t): 8780 ng·h/mL
  Cmax: 4370 ng/mL
  Tmax: 1 h
[8]
  AUC(0-t): 4090 ng·h/mL
  Cmax: 1910 ng/mL
  Tmax: 2 h
1 mg/kg, female rats, Day 1, 8 h, listed as BCV, 1 mg/kg
  C (Concentration), individual animals: BLQ
1 mg/kg, female rats, Day 1, 24 h
  C (Concentration), individual animals: BLQ
1 mg/kg, female rats, Day 7, 0 h
  C (Concentration), individual animals: BLQ
1 mg/kg, female rats, Day 7, 8 h, listed as BCV, 1 mg/kg
  C (Concentration), individual animals: BLQ
1 mg/kg, female rats, Day 7, 24 h
  C (Concentration), individual animals: BLQ
1 mg/kg, male rats, Day 1, 8 h
  C (Concentration), individual animals: BLQ
1 mg/kg, male rats, Day 1, 24 h
  C (Concentration), individual animals: BLQ
1 mg/kg, male rats, Day 7, 0 h
  C (Concentration), individual animals: BLQ
1 mg/kg, male rats, Day 7, 8 h
  C (Concentration), individual animals: BLQ
1 mg/kg, male rats, Day 7, 24 h
  C (Concentration), individual animals: BLQ
15 mg/kg, female rats, Day 7, 0 h
  C (Concentration), individual animals: BLQ
